Reference: patent publication US9115213B2, “Phenotypic reversion of pancreatic carcinoma cells” (The Research Foundation of State University of New York, priority 2004, dated 2015)
Entries after “also recorded” stand apart in the source; their conditions may differ. Read-outs that look alike come from different tables or passages of the source. Where a SMILES comes first, the peptide text is derived from it.

How the values were obtained:
[1] = target: T1, oncogenic ras-p21 (Val 12-p21) (Homo sapiens, UniProt P01112, G12V); conditions: cited from earlier work
T1 construct: host or cells: microinjected into Xenopus laevis oocytes

[2] = system: insulin-activated wild-type ras-p21; conditions: cited from earlier work
TUC-3 cells [3] = conditions: cited from earlier work
BMRPA1 cells = conditions: cited from earlier work
[4] = system: BMRPA1 pancreatic acinar cells; experiment: Peptide incubation with normal BMRPA1 cells
Source text: As described in several prior publications (16, 17, 20), we have developed two cell lines, one a normal contact-inhibited line of rat pancreatic acinar cells, called BMRPA1.430 (BMRPA1) cells and the other a pancreatic acinar carcinoma obtained by transfection of BMRPA1 cells with a plasmid containing an activated human K-ras oncogene [single base mutation at codon 12, valine substitution for the wild type glycine in the ras protein (K-ras^val12); a kind gift of Dr. M. Perucho (CIBR, La Jolla, Calif.)] and a neomycin resistance gene. […] In addition, they phenotypically maintain differentiated cell functions such as continued enzyme production and activation of zymogen secretion by secretagogue.
Approximately 300,000 cells (either BMRPA1 or TUC-3) were plated in each of six wells and were allowed to adhere overnight. In one set of experiments, the initial media consisted of DMEM with 10% fetal bovine serum that contained no peptide. In another set of experiments, the initial media contained peptide. In the first set, media containing peptide was added after 24 hours; in both sets, after the first 24 hours, the media was changed every 24 hours and always contained peptide at a particular concentration. Cells were observed daily for three weeks for changes in morphology and growth characteristics. Peptides were present at concentrations of […].

[5] = system: ras-transformed pancreatic cancer (TUC-3) cells; experiment: Peptide incubation with TUC-3 cells (morphology, phenotypic reversion); assay type: cell-based, rat
TUC-3 cells [6] = experiment: Explantation of peptide-treated, morphologically revertant TUC-3 cells into nude mice; assay type: in vivo, Nu/Nu mice; conditions: for Tumor Nodule Size: 5 × 10^6 TUC-3 cells treated 2 weeks with peptide, posterior cervical fat pad, 5 nude mice, mean ± SD
Protocol: To evaluate cells that appeared to be morphologically revertant to the normal phenotype, approximately 5×10^6 morphologically revertant TUC-3 cells treated for two weeks with 100 μg/ml of PNC-2 were injected subcutaneously into the posterior cervical fatpad of each of five Nu/Nu mice. Similarly, 5×10^6 untreated TUC-3 cells were explanted into another five Nu/Nu mice. Daily observations, over a 120 day period, were made on both sets of mice to determine if tumor nodules appeared at the site of injection.

Val 12-Ha-ras-p21 = target: T2, Val 12-Ha-ras-p21 (Homo sapiens, UniProt P01112, G12V); experiment: Co-immunoprecipitation of raf, MEK, JNK and MAPK with injected Val 12-Ha-ras-p21 in oocytes; assay type: cell-based, Xenopus laevis; conditions: peptide co-injected with Val 12-p21 into oocytes; anti-Ha-ras immunoprecipitate (FIG. 4A)
T2 construct: host or cells: protein microinjected into Xenopus laevis oocytes
Protocol: In these experiments, the Ha-ras form of Val 12-p21 was injected into oocytes (100 ug/ml, 50 nl per oocyte) either alone or together with inhibitory p21 peptide (residues 96-110 shown in this figure). […] The lysate was centrifuged for 15 min at 17000×g at 4° C., and the supernatant was either used directly. The lysates were then subjected to immunoprecipitation using an anti-Ha-ras antibody (CalBiochem). In this procedure, cell lysate was first pre-cleared by incubation with 50 ul of protein A beads for 1 hr at room temperature, followed by centrifugation. Anti-Ha-ras antibody was added to the lysate such that 0.1 ug antibody was added per 250 ug of pre-cleared lysate protein. A volume of 25 μl protein A agarose beads (Sigma) was then added to the incubation mixture, and the resulting mixture was incubated overnight at 4° C., after which the mixture was centrifuged, and the immunoprecipitate was washed three times with 0.5 ml of kinase buffer as described above. Immunoprecipitates were subjected to SDS-PAGE as described above in the preceding paragraph and blotted with anti-Ha-ras (1:2000 with 0.25% BSA), anti-raf (CalBiochem, San Diego, Calif.), diluted 1:2000 with 0.25% BSA, anti-JNK polyclonal antibody (1:2000), anti-MEK (CalBiochem) and anti-MAPK, diluted 1:2000 with 0.25% BSA. […]

[7] = target: T1, oncogenic ras-p21 (Val 12-p21); experiment: Val 12-p21-induced oocyte maturation; assay type: cell-based, Xenopus laevis; conditions: peptide injected together with Val 12-p21
[8] = target: Val 12-p21-JNK interaction (Homo sapiens, UniProt P01112, G12V); conditions: cited from earlier work

Compound: CO[C@@H]1[C@H](N(C)C(=O)c2ccccc2)C[C@H]2O[C@]1(C)n1c3ccccc3c3c4c(c5c6ccccc6n2c5c31)C(=O)NC4 [CGP 41 251]
- oncogenic ras-p21-induced oocyte maturation / mitogenic signaling in oocytes [1]: blocks oncogenic ras-p21-induced oocyte maturation
- insulin-activated wild-type ras-p21-induced oocyte maturation / signaling [2]: much less effect
- effect on TUC-3 cells (TUC-3 cells [3]): induces both necrosis and phenotypic reversion of TUC-3 cells
- growth of revertant TUC-3 cells in soft agar (TUC-3 cells [3]): fail to grow in soft agar
- cytotoxicity to BMRPA1 cells (BMRPA1 cells): cytotoxic to BMRPA1 cells

Compound: CC[C@H](C)[C@H](NC(=O)[C@@H](NC(=O)[C@@H](NC(=O)[C@H](CCC(N)=O)NC(=O)[C@H](CCCCN)NC(=O)[C@H](CCCNC(=N)N)NC(=O)[C@H](Cc1ccc(O)cc1)NC(=O)[C@H](CO)NC(=O)[C@H](CC(=O)O)NC(=O)[C@H](CCC(=O)O)NC(=O)[C@@H](NC(=O)[C@@H](N)[C@@H](C)O)[C@@H](C)CC)C(C)C)C(C)C)C(=O)N[C@@H](CC(=O)O)C(=O)O [PNC-7, TIEDSYRKQVVID] (H-TIEDSYRKQVVID-OH)
- cytotoxicity [4]: lack of cytotoxicity
- effect on growth of BMRPA1 cells [4]: no apparent effects

Compound: CC[C@H](C)[C@H](NC(=O)[C@H](CCCNC(=N)N)NC(=O)[C@H](CCCCN)NC(=O)CNC(=O)[C@@H](NC(=O)[C@H](CO)NC(=O)[C@H](Cc1ccccc1)NC(=O)[C@@H]1CCCN1C(=O)[C@@H](N)CCSC)[C@@H](C)O)C(=O)N[C@@H](CCSC)C(=O)N[C@@H](CC(C)C)C(=O)NCC(=O)N[C@@H](CCC(=O)O)C(=O)N[C@@H](CCCCN)C(=O)N[C@@H](CCCCN)C(=O)N[C@@H](Cc1c[nH]c2ccccc12)C(=O)N[C@@H](CCCCN)C(=O)N[C@@H](CCSC)C(=O)N[C@@H](CCCNC(=N)N)C(=O)N[C@@H](CCCNC(=N)N)C(=O)N[C@@H](CC(N)=O)C(=O)N[C@@H](CCC(N)=O)C(=O)N[C@@H](Cc1ccccc1)C(=O)N[C@@H](Cc1c[nH]c2ccccc12)C(=O)N[C@H](C(=O)N[C@@H](CCCCN)C(=O)N[C@H](C(=O)N[C@@H](CCC(N)=O)C(=O)N[C@@H](CCCNC(=N)N)C(=O)NCC(=O)O)C(C)C)C(C)C [X13-leader, reference compound]
- effect on morphology of BMRPA1 cells [4]: no effect

Compound: N[C@@H](Cc1ccc(O)cn1)C(=O)O [azatyrosine, reference compound]
- oncogenic ras-p21-induced oocyte maturation / mitogenic signaling in oocytes [1]: selectively blocks oncogenic ras-p21-induced oocyte maturation

Compound: PNC-2-leader: ras-p21 residues 96-110 (SEQ ID NO:1) with penetratin leader KKWKMRRNQFWVKVQRG attached to its carboxyl terminal end (YREQIKRVKDSDVPKKWKMRRNQFWVKVQRG; amino acid residues 96-110 of oncogenic ras-p21 protein)
- lowest concentration at which the morphological reversion of TUC-3 cells was achieved [5]: 1 ug/ml
- phenotypic reversion of TUC-3 cells ([5]; 1 ug/ml, after two weeks): complete phenotypic reversion
- change in cell morphology of TUC-3 cells ([5]; 100 μg/ml, 1 week (FIG. 2A)): the cells grow into contact-inhibited monolayers and show distinct cell boundaries
- phenotypic reversion of TUC-3 cells ([5]; after one day of treatment (FIG. 2B: 100 μg/ml)): foci of acinar cellular differentiation appear
- tumor formation by morphologically revertant TUC-3 cells in nude mice (TUC-3 cells [6]; cells treated two weeks with 100 ug/ml peptide, explanted subcutaneously): fail to form tumors up to two months after reversion

Compound: PNC-7-leader: ras-p21 residues 35-47 (TIEDSYRKQVVID, SEQ ID NO:2) with penetratin leader KKWKMRRNQFWVKVQRG attached to its carboxyl terminal end (TIEDSYRKQVVIDKKWKMRRNQFWVKVQRG; peptide amino acid residues 35-47 of oncogenic ras-p21 protein)
- phenotypic reversion of TUC-3 cells ([5]; 100 and 200 ug/ml (FIG. 2C: two weeks)): phenotypic reversion of the cells
- concentration at which complete reversion of TUC-3 cells was achieved ([5]; after two weeks of incubation): ≥ 100 µg/mL

Compound: YREQIKRVKDSDDVP (YREQIKRVKDSDVP; amino acid residues 96-110 of oncogenic ras-p21 protein) [PNC-2]
- phenotypic reversion of TUC-3 cells [5]: 100%
- cytotoxicity [4]: lack of cytotoxicity
- effect on growth of BMRPA1 cells [4]: no apparent effects
- Tumor Nodule Size (TUC-3 cells [6]; day 0): 0.0 mm
- Tumor Nodule Size (TUC-3 cells [6]; day 7): 0.0 mm
- Tumor Nodule Size (TUC-3 cells [6]; day 14): 0.0 mm
- Tumor Nodule Size (TUC-3 cells [6]; day 21): 0.0 mm
- Tumor Nodule Size (TUC-3 cells [6]; day 28): 0.0 mm
- Tumor Nodule Size (TUC-3 cells [6]; day 42): 0.0 mm
- Tumor Nodule Size (TUC-3 cells [6]; day 56): 0.0 mm
- co-precipitation of raf, MEK, JNK and MAPK with Val 12-ras-p21 (Val 12-Ha-ras-p21): none of these proteins precipitated with Val 12-ras-p21 although there is still some binding to raf
- Val 12-p21-induced oocyte maturation [7]: strongly inhibits maturation
- oncogenic ras-p21-induced oocyte maturation / mitogenic signaling in oocytes [1]: block mitogenic signaling by oncogenic ras-p21 in oocytes; also recorded: block oncogenic ras-induced oocyte maturation
- insulin-activated wild-type ras-p21-induced oocyte maturation / signaling [2]: little effect; also recorded: do not block insulin-activated wild type ras-induced maturation
- interferes with / blocks Val 12-p21-JNK interaction [8]: blocks oncogenic ras-p21-JNK interactions; also recorded: blocks the interaction of Val 12-p21 with JNK; also recorded: interferes with Val 12-p21-JNK interaction
